# Tests used:
# [1] = system: echinocloa crus-galli R.S.; test: herbicidal activity, soil treatment one day after sowing; type: in vivo
# vicia sativa L. = test: as above; type: in vivo
# Outline: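 Pre-emergence soil treatment one day after sowing; activity scored visually on a […] scale against untreated control, from slight difference (1) to no germination or total containment at emergence (4); intermediate activity recorded as both classes, preeminent value first.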
# avena sativa (oats) = test: activity on agrarian species, soil treatment one day after sowing; type: in vivo, Avena sativa L.
# [2] = system: phaseolus vulgaris (bean); test: as above; type: in vivo, Phaseolus vulgaris L.
# Outline: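 Product applied to soil one day after sowing at 1, 3, 6, 8, 10, 12 and 14 kg/ha. Effect on bean plants scored against control on a 0–4 scale, 4 meaning no germination or total containment at emergence; intermediate activity recorded with both values.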
# solanum Lycopersicum L. = test: as above; type: in vivo; settings: 6 kg/ha
# Excerpt: The infesting species and the agrarian species have been indicated in Table 1 by letters, as follows:
# M = solanum Lycopersicum L.
# (§1) Method of evaluation of the results (of tests):
# (§2) 0 = no activity and no difference with respect to the control;
# (§3) 1 slight differences with respect to the control;
# (§4) 3 = considerable activity with damages that definitely impair the further development of most of the small plants; an activity degree already useful for practical purposes;
# (§5) 4 = maximum of activity with lack of germination or total containment of the small plants in the emerging stage.
# In the case of an intermediate activity between two classes of the scale, both values are recorded with the one which corresponds to the preeminent activity preceding. […]
# oryza sativa L. (rice) = test: as above; type: in vivo
# Outline: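 Pre-emergence soil treatment of rice applied one day after sowing at 1, 3, 6, 8, 10, 12 and 14 kg/ha. Crop injury scored against untreated control on a 0–4 scale, 4 being no germination or total containment at emergence; intermediate activity recorded as both adjacent classes.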
# Digitaria sanguinalis L. = test: herbicidal activity of PA 106 against infesting herbs; type: in vivo
# Excerpt: as §1, §2, §3, §4, §5
# (§6) In the case of an intermediate activity between two classes of the scale, both values are recorded with the one which corresponds to the preeminent activity preceding.
# (§7) TABLE 3 reports data on the herbicidal activity against infesting herbs, while TABLE 4 reports data concerning the activity on useful species of agricultural cultivations. These tables employ the criterion explained previously. The product was spread on the soil one day after sowing, in quantities of 1, 3, 6, 8, 10, 12 and 14 kg/ha.
# [3] = system: Panichum Dichotomi florum M.; test: as above; type: in vivo
# Excerpt: as §1, §2, §3, §4, §5, §6, §7
# Papmer rhoeas L. = test: as above; type: in vivo
# Excerpt: as §1, §2, §3, §4, §5, §6, §7
# Portulaca oleracea L. = test: as above; type: in vivo
# Excerpt: as §1, §2, §3, §4, §5, §6, §7
# Sorghum sp. = test: as above; type: in vivo
# Excerpt: as §1, §2, §3, §4, §5, §6, §7
# Brassica napus L. colza = test: activity of PA 106 on useful species; type: in vivo
# Excerpt: as §1, §2, §3, §4, §5, §6, §7
# [4] = system: Brassica oleracea, L. (cabbage); test: activity of PA 106 on useful species; type: in vivo
# Excerpt: as §1, §2, §3, §4, §5, §6, §7
# Soja Hispida L. (soya) = test: activity of PA 106 on useful species; type: in vivo
# Excerpt: as §1, §2, §3, §4, §5, §6, §7
# Echinocloa crus-galli = test: Example 3 rice field test, granular composition; type: in vivo; settings: 6 kg of PA 106 per hectar
# Method: (§8) In this test a granular composition of PA 106 containing 5% of active principle and 95% of bentonite was used. The treatment was carried out in a rice field with areas of from 900 to 1000 sq.m on naked soil flooded just shortly before the sowing of the rice. There were used doses of granulate equal to 4, 6, 8 and 10 kg of active substance per hectar of surface.
# rice [5] = test: Example 3 rice field test, granular composition; type: in vivo; settings: 4, 6, 8 and 10 kg/ha
# Method: as §8
# rice [6] = test: plot-test in open field planted with rice; type: in vivo; settings: even at 30 kg/ha of active substance
compound,measurement,setting,value
"CCC(C)N(C(=O)c1ccc(Cl)c(Cl)c1)C(C)CC (stereo not shown) [PA106, 3,4-dichloro-N,N-di-sec.butyl-benzamide]","herbicidal activity, Table 3",[1]; 1 kg/ha,0/1
same,"activity on D, 0-4 scale",[1]; 2 kg/ha,2
same,"herbicidal activity, Table 3",[1]; 3 kg/ha,3
same,"activity on D, 0-4 scale",[1]; 4 kg/ha,3-4
same,"activity on D, 0-4 scale",[1]; 6 kg/ha,4
same,"herbicidal activity, Table 3",[1]; 6 kg/ha,4
same,"herbicidal activity, Table 3",[1]; 8 kg/ha,4
same,"herbicidal activity, Table 3",[1]; 10 kg/ha,4
same,"herbicidal activity, Table 3",[1]; 12 kg/ha,4
same,"herbicidal activity, Table 3",[1]; 14 kg/ha,4
same,"activity on F, 0-4 scale",vicia sativa L.; 2 kg/ha,0
same,"activity on F, 0-4 scale",vicia sativa L.; 4 kg/ha,0
same,"activity on F, 0-4 scale",vicia sativa L.; 6 kg/ha,0
same,"activity on useful species, Table 4",avena sativa (oats); 1 kg/ha,0
same,"activity on useful species, Table 4",avena sativa (oats); 3 kg/ha,0
same,"activity on G, 0-4 scale",avena sativa (oats); 6 kg/ha,0
same,"activity on useful species, Table 4",avena sativa (oats); 6 kg/ha,0
same,"activity on useful species, Table 4",avena sativa (oats); 8 kg/ha,0
same,"activity on useful species, Table 4",avena sativa (oats); 10 kg/ha,0/1
same,"activity on useful species, Table 4",avena sativa (oats); 12 kg/ha,0/1
same,"activity on useful species, Table 4",avena sativa (oats); 14 kg/ha,1
same,"activity on useful species, Table 4",[2]; 1 kg/ha,0
same,"activity on useful species, Table 4",[2]; 3 kg/ha,0
same,"activity on I, 0-4 scale",[2]; 6 kg/ha,0
same,"activity on useful species, Table 4",[2]; 6 kg/ha,0
same,"activity on useful species, Table 4",[2]; 8 kg/ha,0
same,"activity on useful species, Table 4",[2]; 10 kg/ha,0
same,"activity on useful species, Table 4",[2]; 12 kg/ha,0/1
same,"activity on useful species, Table 4",[2]; 14 kg/ha,0/1
same,"activity on M, 0-4 scale",solanum Lycopersicum L.,0
same,"activity on useful species, Table 4",oryza sativa L. (rice); 1 kg/ha,0
same,"activity on useful species, Table 4",oryza sativa L. (rice); 3 kg/ha,0
same,"activity on P, 0-4 scale",oryza sativa L. (rice); 6 kg/ha,0
same,"activity on useful species, Table 4",oryza sativa L. (rice); 6 kg/ha,0
same,"activity on useful species, Table 4",oryza sativa L. (rice); 8 kg/ha,0
same,"activity on useful species, Table 4",oryza sativa L. (rice); 10 kg/ha,0
same,"activity on useful species, Table 4",oryza sativa L. (rice); 12 kg/ha,0
same,"activity on useful species, Table 4",oryza sativa L. (rice); 14 kg/ha,0/1
same,"herbicidal activity, Table 3",Digitaria sanguinalis L.; 1 kg/ha,2/3
same,"herbicidal activity, Table 3",Digitaria sanguinalis L.; 3 kg/ha,4/3
same,"herbicidal activity, Table 3",Digitaria sanguinalis L.; 6 kg/ha,4
same,"herbicidal activity, Table 3",Digitaria sanguinalis L.; 8 kg/ha,4
same,"herbicidal activity, Table 3",Digitaria sanguinalis L.; 10 kg/ha,4
same,"herbicidal activity, Table 3",Digitaria sanguinalis L.; 12 kg/ha,4
same,"herbicidal activity, Table 3",Digitaria sanguinalis L.; 14 kg/ha,4
same,"herbicidal activity, Table 3",[3]; 1 kg/ha,2
same,"herbicidal activity, Table 3",[3]; 3 kg/ha,5/4
same,"herbicidal activity, Table 3",[3]; 6 kg/ha,4
same,"herbicidal activity, Table 3",[3]; 8 kg/ha,4
same,"herbicidal activity, Table 3",[3]; 10 kg/ha,4
same,"herbicidal activity, Table 3",[3]; 12 kg/ha,4
same,"herbicidal activity, Table 3",[3]; 14 kg/ha,4
same,"herbicidal activity, Table 3",Papmer rhoeas L.; 1 kg/ha,0
same,"herbicidal activity, Table 3",Papmer rhoeas L.; 3 kg/ha,1
same,"herbicidal activity, Table 3",Papmer rhoeas L.; 6 kg/ha,2
same,"herbicidal activity, Table 3",Papmer rhoeas L.; 8 kg/ha,3
same,"herbicidal activity, Table 3",Papmer rhoeas L.; 10 kg/ha,4
same,"herbicidal activity, Table 3",Papmer rhoeas L.; 12 kg/ha,4
same,"herbicidal activity, Table 3",Papmer rhoeas L.; 14 kg/ha,4
same,"herbicidal activity, Table 3",Portulaca oleracea L.; 1 kg/ha,0
same,"herbicidal activity, Table 3",Portulaca oleracea L.; 3 kg/ha,1/2
same,"herbicidal activity, Table 3",Portulaca oleracea L.; 6 kg/ha,3
same,"herbicidal activity, Table 3",Portulaca oleracea L.; 8 kg/ha,3/4
same,"herbicidal activity, Table 3",Portulaca oleracea L.; 10 kg/ha,4
same,"herbicidal activity, Table 3",Portulaca oleracea L.; 12 kg/ha,4
same,"herbicidal activity, Table 3",Portulaca oleracea L.; 14 kg/ha,4
same,"herbicidal activity, Table 3",Sorghum sp.; 1 kg/ha,1
same,"herbicidal activity, Table 3",Sorghum sp.; 3 kg/ha,3
same,"herbicidal activity, Table 3",Sorghum sp.; 6 kg/ha,4
same,"herbicidal activity, Table 3",Sorghum sp.; 8 kg/ha,4
same,"herbicidal activity, Table 3",Sorghum sp.; 10 kg/ha,4
same,"herbicidal activity, Table 3",Sorghum sp.; 12 kg/ha,4
same,"herbicidal activity, Table 3",Sorghum sp.; 14 kg/ha,4
same,"activity on useful species, Table 4",Brassica napus L. colza; 1 kg/ha,0
same,"activity on useful species, Table 4",Brassica napus L. colza; 3 kg/ha,0
same,"activity on useful species, Table 4",Brassica napus L. colza; 6 kg/ha,1
same,"activity on useful species, Table 4",Brassica napus L. colza; 8 kg/ha,1/2
same,"activity on useful species, Table 4",Brassica napus L. colza; 10 kg/ha,2/3
same,"activity on useful species, Table 4",Brassica napus L. colza; 12 kg/ha,3
same,"activity on useful species, Table 4",Brassica napus L. colza; 14 kg/ha,3
same,"activity on useful species, Table 4",[4]; 1 kg/ha,0
same,"activity on useful species, Table 4",[4]; 3 kg/ha,0
same,"activity on useful species, Table 4",[4]; 6 kg/ha,0/1
same,"activity on useful species, Table 4",[4]; 8 kg/ha,1
same,"activity on useful species, Table 4",[4]; 10 kg/ha,1/2
same,"activity on useful species, Table 4",[4]; 12 kg/ha,1/2
same,"activity on useful species, Table 4",[4]; 14 kg/ha,2
same,"activity on useful species, Table 4",Soja Hispida L. (soya); 1 kg/ha,0
same,"activity on useful species, Table 4",Soja Hispida L. (soya); 3 kg/ha,0
same,"activity on useful species, Table 4",Soja Hispida L. (soya); 6 kg/ha,0
same,"activity on useful species, Table 4",Soja Hispida L. (soya); 8 kg/ha,0
same,"activity on useful species, Table 4",Soja Hispida L. (soya); 10 kg/ha,0/1
same,"activity on useful species, Table 4",Soja Hispida L. (soya); 12 kg/ha,0/1
same,"activity on useful species, Table 4",Soja Hispida L. (soya); 14 kg/ha,0/1
same,inhibition of growth of the infestant,Echinocloa crus-galli,for all practical purposes be considered as total
same,damage to rice,rice [5],without suffering any damage
same,phytotoxic effects on the rice,rice [6],no phytotoxic effects

# Reference: US3982931A, “N,N-di-sec.butyl-benzamide herbicides” (priority 1967, dated 1976)
